Experimental data published in patent US20170190671A1, “BIS(ARYL)CATECHOL DERIVATIVES AS HERBICIDES” (E I DU PONT DE NEMOURS AND COMPANY, priority 2014, published 2017).

Assays:
Format in all cases: in vivo
[1] = tested on: sedge, umbrella (small-flower umbrella sedge, Cyperus difformis); test: Test B flooded paddy; settings: 250 g ai/ha, Flood, 13 to 15 days, scale 0 (no effect) to 100 (complete control)
From the text: (§1) At time of treatment, test pots were flooded to 3 cm above the soil surface, treated by application of test compounds directly to the paddy water, and then maintained at that water depth for the duration of the test. Treated plants and controls were maintained in a greenhouse for 13 to 15 days, after which time all species were compared to controls and visually evaluated. […] A dash (-) response means no test result.

[2] = tested on: barnyardgrass (Echinochloa crus-galli); test: Test B flooded paddy; settings: 250 g ai/ha, Flood, 13 to 15 days, scale 0 (no effect) to 100 (complete control)
From the text: as §1

rice (Oryza sativa) = test: Test B flooded paddy; settings: 250 g ai/ha, Flood, 13 to 15 days, scale 0 (no effect) to 100 (complete control)
From the text: as §1

[3] = tested on: ducksalad (Heteranthera limosa); test: Test B flooded paddy; settings: 250 g ai/ha, Flood, 13 to 15 days, scale 0 (no effect) to 100 (complete control)
From the text: as §1

kochia (Kochia scoparia) [4] = test: Test A postemergence; settings: 0 to 100 scale
In short: (§2)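 Scoring: eye-based comparison with untreated controls, 0 for no effect through 100 for complete control, at about day 10. Treatments: directed soil spray preemergence; foliar spray postemergence on 2–10 cm plants at the one- to two-leaf stage. Medium: loam soil with sand.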

[5] = tested on: ragweed (common ragweed, Ambrosia elatior); test: Test A postemergence; settings: 0 to 100 scale
In short: as §2

[6] = tested on: galium (catchweed bedstraw, Galium aparine); test: Test A postemergence; settings: 0 to 100 scale
In short: as §2

[7] = tested on: barnyardgrass (Echinochloa crus-galli); test: Test A postemergence; settings: 0 to 100 scale
In short: as §2

[8] = tested on: pigweed (Amaranthus retroflexus); test: Test A postemergence; settings: 0 to 100 scale
In short: as §2

[9] = tested on: blackgrass (Alopecurus myosuroides); test: Test A postemergence; settings: 0 to 100 scale
In short: as §2

[10] = tested on: wheat (Triticum aestivum); test: Test A postemergence; settings: 0 to 100 scale
In short: as §2

[11] = tested on: Italian ryegrass (Lolium multiflorum); test: Test A postemergence; settings: 0 to 100 scale
In short: as §2

[12] = tested on: giant foxtail (Setaria faberii); test: Test A postemergence; settings: 0 to 100 scale
In short: as §2

corn (Zea mays) = test: Test A postemergence; settings: 0 to 100 scale
In short: as §2

kochia (Kochia scoparia) [13] = test: Test A preemergence; settings: 0 to 100 scale (0 no effect, 100 complete control)
In short: as §2

[14] = tested on: ragweed (common ragweed, Ambrosia elatior); test: Test A preemergence; settings: 0 to 100 scale (0 no effect, 100 complete control)
In short: as §2

[15] = tested on: barnyardgrass (Echinochloa crus-galli); test: Test A preemergence; settings: for Barnyardgrass plant response rating: 31 g ai/ha, 0 to 100 scale (0 no effect, 100 complete control); for Plant response rating, Barnyardgrass: 125 g ai/ha, 0 to 100 scale
In short: as §2

[16] = tested on: pigweed (Amaranthus retroflexus); test: Test A preemergence; settings: 0 to 100 scale (0 no effect, 100 complete control)
In short: as §2

[17] = tested on: Italian ryegrass (Lolium multiflorum); test: Test A preemergence; settings: 0 to 100 scale (0 no effect, 100 complete control)
In short: as §2

[18] = tested on: giant foxtail (Setaria faberii); test: Test A preemergence; settings: 0 to 100 scale (0 no effect, 100 complete control)
In short: as §2

Row | Compound | Plant response rating, Sedge, Umbrella [1] | Plant response rating, Barnyardgrass [2] | Plant response rating, Rice (rice (Oryza sativa)) | Plant response rating, Ducksalad [3] | Plant response rating, Kochia (kochia (Kochia scoparia) [4]; 31 g ai/ha) | Plant response rating, Kochia (kochia (Kochia scoparia) [4]; 125 g ai/ha) | Plant response rating, Ragweed ([5]; 31 g ai/ha) | Plant response rating, Ragweed ([5]; 125 g ai/ha) | Plant response rating, Galium ([6]; 31 g ai/ha) | Plant response rating, Galium ([6]; 125 g ai/ha) | Plant response rating, Barnyardgrass ([7]; 31 g ai/ha) | Plant response rating, Barnyardgrass ([7]; 125 g ai/ha) | Plant response rating, Pigweed ([8]; 31 g ai/ha) | Plant response rating, Pigweed ([8]; 125 g ai/ha) | Plant response rating, Blackgrass ([9]; 31 g ai/ha) | Plant response rating, Blackgrass ([9]; 125 g ai/ha) | Plant response rating, Wheat ([10]; 31 g ai/ha) | Plant response rating, Wheat ([10]; 125 g ai/ha) | Plant response rating, Ryegrass, Italian ([11]; 31 g ai/ha) | Plant response rating, Ryegrass, Italian ([11]; 125 g ai/ha) | other results
1 | N#Cc1cccc(Oc2ncc(Cl)cn2)c1Oc1ccc(C(F)(F)F)nn1 [Compound 26] | 60 | 0 | 0 | 70 | 40 | 60 | 30 | 30 | 30 | 50 | 0 | 20 | 50 | 80 | 0 | 30 | 0 | 10 | 0 | 0 | Plant response rating, Foxtail, Giant ([12]; 31 g ai/ha): 10; Plant response rating, Foxtail, Giant ([12]; 125 g ai/ha): 30; Plant response rating, Corn (corn (Zea mays); 31 g ai/ha): 0; Plant response rating, Corn (corn (Zea mays); 125 g ai/ha): 20; Kochia plant response rating (kochia (Kochia scoparia) [13]; 31 g ai/ha): 20; Kochia plant response rating (kochia (Kochia scoparia) [13]; 125 g ai/ha): 30; Ragweed plant response rating ([14]; 31 g ai/ha): 0; Ragweed plant response rating ([14]; 125 g ai/ha): 20; Barnyardgrass plant response rating [15]: 0; Plant response rating, Barnyardgrass [15]: 20; Pigweed plant response rating ([16]; 31 g ai/ha): 90; Pigweed plant response rating ([16]; 125 g ai/ha): 100; Ryegrass, Italian plant response rating ([17]; 31 g ai/ha): 0; Ryegrass, Italian plant response rating ([17]; 125 g ai/ha): 0; Foxtail, Giant plant response rating ([18]; 31 g ai/ha): 20; Foxtail, Giant plant response rating ([18]; 125 g ai/ha): 60
2 | N#Cc1cccc(Oc2ncc(Cl)cn2)c1Oc1ccc(OC(F)(F)F)cc1 [Compound 33] | 0 | 0 | 0 | 0 | 20 | 40 | 0 | 10 | 10 | 30 | 0 | 10 | 30 | 80 | 0 | 10 | 0 | 0 | 0 | 10 | Plant response rating, Foxtail, Giant ([12]; 31 g ai/ha): 10; Plant response rating, Foxtail, Giant ([12]; 125 g ai/ha): 20; Plant response rating, Corn (corn (Zea mays); 31 g ai/ha): 0; Plant response rating, Corn (corn (Zea mays); 125 g ai/ha): 10; Kochia plant response rating (kochia (Kochia scoparia) [13]; 31 g ai/ha): 0; Kochia plant response rating (kochia (Kochia scoparia) [13]; 125 g ai/ha): 0; Ragweed plant response rating ([14]; 31 g ai/ha): 0; Ragweed plant response rating ([14]; 125 g ai/ha): 0; Barnyardgrass plant response rating [15]: 0; Plant response rating, Barnyardgrass [15]: 10; Pigweed plant response rating ([16]; 31 g ai/ha): 0; Pigweed plant response rating ([16]; 125 g ai/ha): 30; Ryegrass, Italian plant response rating ([17]; 31 g ai/ha): 0; Ryegrass, Italian plant response rating ([17]; 125 g ai/ha): 0; Foxtail, Giant plant response rating ([18]; 31 g ai/ha): 10; Foxtail, Giant plant response rating ([18]; 125 g ai/ha): 40
